# Reference: patent publication US4269940A, “Microbiological alkane oxidation process” (priority 1979, dated 1981)
# Where two headings read alike, the source gives them in different places.
# Legend:
# [1] = system: purified secondary alcohol dehydrogenase; test: Substrate and electron acceptor specificity of purified yeast secondary alcohol dehydrogenase; format: biochemical, Pichia sp. NRRL Y-11,328; settings: for Oxidation by the purified yeast enzyme (in words): examined spectrophotometrically
# Description: (§1) Large scale cultures of Pichia sp. NRRL Y-11,328 were grown with aeration at 30° C. in a 14-liter New Brunswick f fermentor in a mineral salt medium containing methanol (0.4%, v/v) as the sole carbon source. The cells (200 g., wet weight) were suspended in 50 mm sodium phosphate buffer, pH 7.0, containing 1 mM dithiothreitol (buffer A), and crude extracts were prepared as described previously. To the crude extracts, 18 ml. of protamine sulfate solution [2% solution in 0.1 M tris (hydroxymethyl) aminomethane (tris) base] was added dropwise with continuous stirring. After standing for 30 min., the extracts were centrifuged at 20,000 x g. for 60 min. The supernatant solution was fractioned with solid ammonium sulfate. Extracts were brought to 50% of saturation with respect to ammonium sulfate by addition of 313 g. of the salt per liter of extract. Precipitated proteins was removed by centrifugation, and 137 g. of ammonium sulfate was added per liter of the supernatant liquid to bring it to 70% of saturation. Material precipitating between 50 and 70% of saturation was collected by centrifugation and dissolved in buffer A. This preparation was dialyzed overnight against buffer A, and the dialyzed material was applied to a DEAE-cellulose column (5×40 cm) that had been equilibrated with buffer A. The sample was washed with 200 ml. of buffer A and eluted with 2 liters of buffer A that contained NaCl in a linear gradient running from a concentration of 0 to 0.5 M. Fractions of 15 ml. were collected. Fractions containing secondary alcohol dehydrogenase activity were pooled and were termed DEAE-cellulose eluate. The DEAE-cellulose eluate was concentrated by ammonium sulfate fractionation.
# (§2) Secondary alcohol dehydrogenase activity was measured spectrophotometrically at 340 nm with a NAD^+ as an electron acceptor. The reaction mixture, in a total 3.0 ml., contained 50 mM phosphate buffer, pH 8.0, 5μmoles NAD^+, crude extracts, and substrate. The reactions were started by addition of 100 μof 0.1 M substrate and the rate of NAD^+ reduction was measured. Protein concentration was determined by the method of Lowry et al.
# The substrate specificity of the purified secondary alcohol dehydrogenase was examined spectrophotometrically.
# [2] = system: secondary alcohol dehydrogenase (SADH); test: Inhibition of purified secondary alcohol dehydrogenase (SADH); format: biochemical, Pseudomonas sp. ATCC 21439
# Description: (§3) Secondary alcohol dehydrogenase (SADH) from an obligate methanol utilizer, Pseudomonas sp. ATCC 21439 was purified as follows. […] 0.05 M sodium phosphate buffer, pH 7.0 with 0.5mM dithiothretol (buffer A) and were disrupted sonically (5×1 min.). The crude extract was separated by centrifugation. The crude extract was heat-treated at 50° C. in a water bath for 10 minutes. The resulting precipitate was removed by centrifugation. To the supernatant solution, 25 ml of protamine sulfate solution (2% solution in 0.1 M Tris base) was added dropwise with continuous stirring. After standing for 30 minutes, the extract was centrifuged. The supernatant solution was fractionated with solid ammonium sulfate. […] This DEAE-cellulose eluate was concentrated by ammonium sulfate fractionation. Material precipitating between 30 and 50% ammonium sulfate saturation was collected by centrifugation and dialyzed overnight against A. This fraction was further washed and filtered through an Amicon unit with XM 50 membrane. The concentrated fraction (6 ml) inside the Amicon unit was applied to an Affi-Gel Blue column (0.8 cm ×18 cm) which had been equilibrated with buffer A for affinity chromatography. The column was washed overnight with buffer A (0.18 ml./min.) and then was eluted with buffer A containing 5 mM NAD. Each 1 ml. fraction was collected.
# (§4) The purified secondary alcohol dehydrogenase enzyme (SADH) may be used directly for converting C3 -C6 secondary alcohols to the corresponding methyl ketones by the procedures described above; however, a source of NAD^+ must be added to the reaction medium. One can determine the NAD-linked secondary alcohol dehydrogenase activity with a fluorescence spectrophotometer (Perkin Elmer, Model MPF 44A) by following the formation of reduced NAD (Ex 340 nm, Em 460 nm). The assay system (3 ml.) will typically contain: sodium phosphate buffer pH 7.0, 150 μmol; NAD 1.0 μmol; a given amount of enzyme preparation; and 20 μmol secondary alcohol. The reaction is started by the addition of secondary alcohol. One unit of SADH enzyme activity represents the reduction of one nmole NAD per minute.
# The effect of metal-chelating agents and thioreagents on the activity of the purified SADH enzyme were studied. […] The possibility of ethanol or n-propanol as an inhibitor was studied.
# [3] = system: secondary alcohol dehydrogenase (SADH); test: Substrate specificity and Michaelis constants of purified SADH; format: biochemical, Pseudomonas sp. ATCC 21439
# Description: as §3, §4
# [4] = system: purified secondary alcohol dehydrogenase; test: Inhibition of purified yeast secondary alcohol dehydrogenase; format: biochemical, Pichia sp. NRRL Y-11,328; settings: purified yeast enzyme
# Description: as §1, §2
# Various primary alcohols not oxidized by secondary alcohol dehydrogenase were tested as potential inhibitors of enzyme activity.
# [5] = system: cell suspensions of the strains of C1-utilizers tested; test: Production of methyl ketones from secondary alcohols by cell suspensions of C1-utilizers (strains tested); format: cell-based; settings: for Rate of oxidation of secondary alcohols to methyl ketones: cell suspensions of C1-utilizers
# Source text: The substrate specificity for the oxidation of C3 -C6 secondary alcohols by the strains of C1 -utilizers was studied.
# [6] = system: P(40) fraction of Methylosinus sp. (CRL-15, NRRL B-11,202); test: Effect of inhibitors on propylene epoxidation and methane hydroxylation by P(40) fraction (Table XI); format: biochemical; settings: inhibitor 10^-3 M
# Description: The oxidation of methane and propylene by particulate [(P)40 and (P)80] fractions and soluble [S(80)] fraction was measured at 30° C. by estimating the production of methanol and propylene oxide, respectively. The reaction mixtures contained in 1.0 ml: 150 mM potassium phosphate buffer, pH 7.0 containing 5 mM MgC2, 0.6 ml; 10 μmoles NADH, and cellular fraction.
# Reaction mixtures were contained in 10 ml vials at 4° C. Vials were sealed with rubber caps. The gaseous phase in the vials was removed using vacuum and then was replaced with a gas mixture of methane or propylene and oxygen at a 1:1, v/v ratio. Oxidation of other gaseous n-alkanes and n-alkenes was examined as described above. For liquid substrates, 10 μ of substrate was used directly. Vials were then incubated at 30° C. on a rotary shaker at 200 RPM.
# The products of epoxidation of n-alkenes and hydroxylation of n-alkanes were assayed by flame ionization gas chromatography using a stainless steel column (12'×1/8") packed with 10% Carbowax 20M on 80/100 Chromosorb W and Porapak Q column. The column temperature was maintained isothermally at 120° C. The carrier gas flow rate was 30 ml/min. of helium. The various products were identified by retention time comparisons and co-chromatography with authentic standards.
# It has been reported that the oxidation of methane by cell suspensions of methane-utilizing bacteria was inhibited by various metal-binding or metal-chelating agents (Patel et al., J. Bacteriol. 126: 1017-1019 (1976)). […] (CRL-15, NRRL B-11,202) was examined.
# [7] = system: cell-free particulate fractions derived from the methylotrophic microorganisms; test: Inhibition of conversion of C3-C6 n-alkanes to sec. alcohols by cell-free particulate fractions; format: biochemical; settings: oxygen and NADH
# Source text: The conditions for preparing the cell suspensions or the cell-free particulate fractions from methane-grown methylotroph microorganisms is the same as described above.
# [8] = inhibitor 1 mM, measured spectrofluorometrically
compound,measurement,setting,value
CCCCCCC(C)O (stereo not shown) [2-octanol],Oxidation by the purified yeast enzyme (in words),[1],not oxidized
"CC(O)CO (stereo not shown) [1,2-propandiol]",Oxidation by the purified yeast enzyme (in words),[1],not oxidized
"O=C(O)c1cc(SSc2ccc([N+](=O)[O-])c(C(=O)O)c2)ccc1[N+](=O)[O-] [5,5'-dithiobis(2-nitrobenzoic acid)]",% inhibition of SADH activity,[2]; [8],100%
CCCCO [butan-1-ol],Oxidation by the purified yeast enzyme (in words),[1],not oxidized
O=C(O)CCC(=O)O [succinic acid],Oxidation by purified SADH (in words),[3],not oxidized
CO [methanol],Oxidation by the purified yeast enzyme (in words),[1],not oxidized
O=[N+]([O-])[O-].[Ag+] [silver nitrate],Inhibition of secondary alcohol dehydrogenase activity (in words),[4],inhibited
"CC(O)C(C)O (stereo not shown) [butane 2,3-diol]",Oxidation by purified SADH (in words),[3],oxidized at a lower rate
N#C[S][Hg][S]C#N [mercuric thiocyanate],Inhibition of secondary alcohol dehydrogenase activity (in words),[4],inhibited
CCCC(C)O (stereo not shown) [2-pentanol],Rate of oxidation of secondary alcohols to methyl ketones,[5],much slower rate
same,Oxidation by purified SADH (in words),[3],oxidized at a lower rate
same,Oxidation by the purified yeast enzyme (in words),[1],catalyzed the oxidation
NC(N)=S [Thiourea],% inhibition of methane-hydroxylating activity,[6],98%
same,% inhibition of propylene-epoxidizing activity,[6],98%
same,Inhibition of production of 2-butanone from 2-butanol,[5]; cell suspensions of the strains tested,not inhibited
same,% inhibition of SADH activity,[2]; [8],0%
same,Inhibition of conversion of C3-C6 n-alkanes to sec. alcohols (in words),[7],inhibited
c1c[nH]cn1 [Imidazole],Inhibition of secondary alcohol dehydrogenase activity (in words),[4],strongly inhibited
CCCCCC(C)O (stereo not shown) [2-heptanol],Rate of oxidation of secondary alcohols to methyl ketones,[5],much slower rate
same,Oxidation by the purified yeast enzyme (in words),[1],not oxidized
"CC(O)CCO (stereo not shown) [butane 1,3-diol]",Oxidation by purified SADH (in words),[3],oxidized at a lower rate
same,Oxidation by the purified yeast enzyme (in words),[1],not oxidized
CCO [ethanol],Oxidation by the purified yeast enzyme (in words),[1],not oxidized
[Zn+2] [Zn^++],% inhibition of SADH activity,[2]; [8],0%
CC=O [acetaldehyde],Oxidation by purified SADH (in words),[3],oxidized at a lower rate
cytochrome c: cytochrome c tested as electron carrier [reference compound],Function as electron acceptor/carrier for the purified yeast enzyme,[1]; purified enzyme,could not act as electron carrier
CCCO [n-propanol],Oxidation by the purified yeast enzyme (in words),[1],not oxidized
Oc1cccc2cccnc12 [8-Hydroxyquinoline],% inhibition of methane-hydroxylating activity,[6],80%
same,% inhibition of propylene-epoxidizing activity,[6],75%
same,Inhibition of conversion of C3-C6 n-alkanes to sec. alcohols (in words),[7],inhibited
O=C(O)c1cc[c]([Hg+])cc1.[OH-] [p-hydroxymercuribenzoate],% inhibition of SADH activity,[2]; [8],100%
same,Inhibition of secondary alcohol dehydrogenase activity (in words),[4],strongly inhibited
O=Cc1ccccc1 [benzaldehyde],Oxidation by purified SADH (in words),[3],not oxidized
[Cu+2] [cupric],% inhibition of SADH activity,[2]; [8],25%
"CCC(O)CO (stereo not shown) [butane 1,2-diol]",Oxidation by purified SADH (in words),[3],not oxidized
same,Oxidation by the purified yeast enzyme (in words),[1],not oxidized
CC(C)CO [isobutanol],Oxidation by purified SADH (in words),[3],not oxidized
CCC=O [propanal],Oxidation by purified SADH (in words),[3],oxidized at a lower rate
C=O [formaldehyde],Oxidation by purified SADH (in words),[3],not oxidized
[Mn+2] [Mn^++],% inhibition of SADH activity,[2]; [8],0%
Oc1ccccc1 [phenol],Oxidation by purified SADH (in words),[3],not oxidized
[Fe+3] [ferric],% inhibition of SADH activity,[2]; [8],35%
OC1CCCCC1 [cyclohexanol],Oxidation by purified SADH (in words),[3],oxidized at a lower rate
[Ni+2] [nickel],% inhibition of SADH activity,[2]; [8],20%
CCCCCO [pentan-1-ol],Oxidation by the purified yeast enzyme (in words),[1],not oxidized
CCN1C(=O)C=CC1=O [N-ethylmalemide],% inhibition of SADH activity,[2]; [8],6%
NNC(N)=S [Thiosemicarbazide],% inhibition of methane-hydroxylating activity,[6],100%
same,% inhibition of propylene-epoxidizing activity,[6],97%
same,Inhibition of conversion of C3-C6 n-alkanes to sec. alcohols (in words),[7],inhibited
O=S(=O)([O-])[O-].[Cu+2] [Cupric Sulfate],Inhibition of secondary alcohol dehydrogenase activity (in words),[4],inhibited
[Fe+2] [ferrous],% inhibition of SADH activity,[2]; [8],50%
[N-]=[N+]=[N-] [Sodium azide],% inhibition of SADH activity,[2]; [8],10%
CCCCC(C)O (stereo not shown) [2-hexanol],Rate of oxidation of secondary alcohols to methyl ketones,[5],much slower rate
same,Oxidation by purified SADH (in words),[3],oxidized at a lower rate
same,Oxidation by the purified yeast enzyme (in words),[1],catalyzed the oxidation
O=C(O)CI [iodoacetic acid],% inhibition of SADH activity,[2],0%
[Mg+2] [Mg^++],% inhibition of SADH activity,[2]; [8],0%
[Co+2] [Co^++],% inhibition of SADH activity,[2]; [8],0%
